Tests used:
Test in all cases: relative viability (nuclei count vs DMSO), 5 days (fraction); higher = more cells survive
[1] = compound: CC1=CC=C(C=C1)C(=O)CN2C3=C(CCCC3)SC2=N [Pifithrin_alpha] + N=C(N)NC(=N)NCCc1ccccc1 [Phenformin] (partner 250 µM)
How it was run: (§1)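 Relative viability was taken as the ratio of nuclei in treated wells to nuclei in vehicle wells. Lung cancer cell lines in 1536-well plates received compounds by pin tool one day after seeding, either one drug alone or a fixed anchor-drug dose plus five library-drug doses (not always all listed) in √10 steps. Nuclei were counted on 4× images after 5 days of treatment, and values are medians of duplicate plates.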

Axitinib + Luminespib = compound: CNC(=O)c1ccccc1Sc1ccc2c(/C=C/c3ccccn3)n[nH]c2c1 [Axitinib] + CCNC(=O)c1noc(-c2cc(C(C)C)c(O)cc2O)c1-c1ccc(CN2CCOCC2)cc1 [Luminespib] (partner 0.01 µM)
How it was run: as §1

Axitinib + Crizotinib = compound: CNC(=O)c1ccccc1Sc1ccc2c(/C=C/c3ccccn3)n[nH]c2c1 [Axitinib] + C[C@@H](Oc1cc(-c2cnn(C3CCNCC3)c2)cnc1N)c1c(Cl)ccc(F)c1Cl [Crizotinib] (partner 1 µM)
How it was run: as §1

Bemcentinib + Lapatinib = compound: Nc1nc(Nc2ccc3c(c2)CC[C@@H](N2CCCC2)CC3)nn1-c1cc2c(nn1)-c1ccccc1CCC2 [Bemcentinib] + CS(=O)(=O)CCNCc1ccc(-c2ccc3ncnc(Nc4ccc(OCc5cccc(F)c5)c(Cl)c4)c3c2)o1 [Lapatinib] (partner 2 µM)
How it was run: as §1

Cell Line | relative viability ([1]; first compound 1 µM) | relative viability ([1]; first compound 3.162 µM) | relative viability ([1]; first compound 10 µM) | relative viability ([1]; first compound 31.62 µM) | relative viability ([1]; first compound 100 µM) | relative viability (Axitinib + Luminespib; first compound 0.005 µM) | relative viability (Axitinib + Luminespib; first compound 0.01581 µM) | relative viability (Axitinib + Luminespib; first compound 0.05 µM) | relative viability (Axitinib + Luminespib; first compound 0.1581 µM) | relative viability (Axitinib + Luminespib; first compound 0.5 µM) | relative viability (Axitinib + Crizotinib; first compound 0.005 µM) | relative viability (Axitinib + Crizotinib; first compound 0.01581 µM) | relative viability (Axitinib + Crizotinib; first compound 0.05 µM) | relative viability (Axitinib + Crizotinib; first compound 0.1581 µM) | relative viability (Axitinib + Crizotinib; first compound 0.5 µM) | relative viability (Bemcentinib + Lapatinib; first compound 0.04 µM) | relative viability (Bemcentinib + Lapatinib; first compound 0.1265 µM) | relative viability (Bemcentinib + Lapatinib; first compound 0.4 µM) | relative viability (Bemcentinib + Lapatinib; first compound 1.265 µM) | relative viability (Bemcentinib + Lapatinib; first compound 4 µM)
201T | 0.401 | 0.385 | 0.383 | 0.441 | 0.457 | 1.04 | 1.04 | 1.09 | 0.989 | 1.04 | 1.06 | 1.05 | 1.05 | 1.07 | 1.02 | 1 | 1.02 | 1.02 | 1.03 | 1.06
A549 |  | 0.272 | 0.374 | 0.315 | 0.305 |  |  |  |  |  | 0.763 | 0.734 | 0.776 | 0.49 | 0.744 | 0.954 | 0.999 | 1.14 | 0.956 | 1.02
A-427 | 0.318 | 0.305 | 0.245 | 0.235 | 0.264 | 0.998 | 1.03 | 1.03 | 0.926 | 0.919 | 1 | 0.958 | 0.82 | 0.898 | 0.901 |  | 0.959 | 1.06 | 1.09 | 1.03
ABC-1 | 0.251 | 0.218 | 0.227 | 0.255 | 0.227 | 0.777 | 0.727 | 0.444 |  | 0.552 | 1.21 | 1.28 | 1.2 | 1.13 | 1.28 | 1.33 | 1.36 | 1.33 | 0.998 | 1.26
BEN | 0.296 | 0.595 | 0.276 | 0.246 | 0.289 | 0.486 | 0.309 | 0.509 | 0.372 | 0.226 | 0.897 | 1.04 | 0.788 | 0.807 | 0.925 | 0.488 | 0.844 | 0.807 | 0.531 | 0.734
CAL-12T | 0.604 | 0.558 | 0.533 |  | 0.457 | 0.96 | 0.302 | 0.216 | 0.672 | 0.364 | 0.675 | 0.75 | 0.529 | 0.834 | 0.537 | 0.556 | 0.598 | 0.599 | 0.597 | 0.652
COR-L23 | 0.465 | 0.46 | 0.426 |  | 0.509 | 0.667 | 0.614 | 0.744 | 0.631 | 0.749 | 0.696 | 0.564 | 0.596 | 0.623 | 0.778 | 1.18 | 0.997 | 1.14 | 1.05 | 1.02
COR-L 105 | 0.525 | 0.484 | 0.55 | 0.436 | 0.403 | 0.628 | 0.922 | 0.669 | 0.64 | 0.81 | 0.841 | 0.965 | 0.86 | 0.776 | 0.968 | 0.311 | 0.327 | 0.416 | 0.338 | 0.394
Calu-6 |  |  |  |  |  |  |  |  |  |  | 0.82 | 0.795 | 0.783 | 0.865 | 0.961 | 1.02 | 1.25 | 1.34 | 1.13 | 1.11
ChaGo-K-1 | 0.485 | 0.5 | 0.491 | 0.387 | 0.472 | 0.591 | 0.703 | 0.44 | 0.495 | 0.533 | 1.1 | 1.17 | 1.13 | 1.05 | 1.15 |  |  |  |  | 
EBC-1 |  |  |  |  |  |  |  |  |  |  | 0.22 | 0.213 | 0.192 | 0.202 | 0.195 | 0.203 | 0.189 | 0.302 | 0.204 | 0.221
EKVX | 0.207 |  | 0.201 | 0.213 | 0.199 | 0.879 | 0.86 | 0.828 | 0.878 | 0.965 | 1.03 | 0.896 | 0.785 | 0.904 | 0.958 | 0.186 | 0.218 | 0.199 | 0.213 | 0.196
EMC-BAC-2 | 0.504 | 0.511 | 0.478 |  | 0.556 | 1.27 | 1.12 | 1.19 | 1.21 | 1.25 | 0.819 | 0.859 | 0.766 | 0.754 | 0.719 | 0.917 | 0.959 | 0.957 | 0.878 | 0.898
EPLC-272H | 0.266 | 0.305 | 0.364 | 0.246 | 0.222 | 0.332 | 0.376 | 0.338 | 0.251 | 0.314 | 0.893 | 0.989 | 0.76 | 0.986 | 0.937 |  | 0.958 | 1.01 | 0.962 | 1.02
H3255 | 0.364 | 0.97 | 0.384 | 0.389 | 0.342 | 0.922 | 0.609 | 0.935 | 0.83 | 0.828 | 0.975 | 0.79 | 0.764 | 0.77 | 1 | 0.222 | 0.352 | 0.229 | 0.237 | 0.191
HARA |  | 0.441 | 0.409 |  | 0.407 | 0.791 | 0.823 | 0.901 | 0.721 | 0.639 | 1.07 | 1.07 | 1.1 | 0.978 | 1.14 | 0.668 | 0.928 | 0.788 | 0.865 | 0.469
HCC-15 | 0.487 | 0.449 | 0.435 | 0.249 | 0.279 | 0.306 | 0.325 | 0.307 | 0.301 | 0.338 | 0.907 | 0.84 | 0.793 | 0.696 | 0.825 | 0.883 | 0.954 | 0.884 | 0.895 | 0.903
HCC-44 | 0.17 | 0.164 | 0.171 | 0.133 | 0.178 | 1.07 | 1.07 | 0.484 | 1.04 | 1.35 | 0.898 | 0.834 | 0.841 | 0.792 | 0.869 | 1.06 | 1.07 | 1.14 | 1.1 | 1.06

— the supplement of paper PMC10307832
